Source: paper PMC10135569, “Does Enhanced Structural Maturity of hiPSC-Cardiomyocytes Better for the Detection of Drug-Induced Cardiotoxicity?” (Biomolecules, 2023)

Assays:
[1] = test system: hiPSC-CMs (iCell2 Cardiomyocytes) 2D monolayers; experiment: Contractility measurements using video imaging (ContractilityTool / MUSCLEMOTION); assay type: cell-based, human; details: for activity at 0.1 µM / activity at 0.3 µM / activity at 1 µM / activity at 3 µM / activity at 10 µM: Homo sapiens, Cardiomyocyte, 0.5 h, 30 min, delta over DMSO 0.1%
In short: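 Monolayers on fibronectin or Matrix Plus coating, tested on days 5–6 in serum-free medium. Four concentrations, one per well, n = 8, with vehicle control.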

[2] = test system: hiPSC-CMs (iCell2 Cardiomyocytes) 2D monolayers; experiment: Membrane potential (action potential) recordings with FluoVolt voltage-sensitive dye on the CellOPTIQ platform; assay type: cell-based, human; details: for activity at 0.1 µM / activity at 0.3 µM / activity at 1 µM / activity at 3 µM / activity at 10 µM: Homo sapiens, Cardiomyocyte, 0.5 h, 30 min, delta over DMSO 0.1%; for electrical activity of the monolayers at higher concentrations: FM and MM
In short: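 iCell2 hiPSC-CM monolayers (50,000 cells/well on fibronectin or Matrix Plus, days 5–6) were loaded with FluoVolt (1:1000, 20 min, 37 °C) and imaged at 37 °C with 470 nm excitation and 510–560 nm emission sampled at 10 kHz. Spontaneous action potentials were recorded for 10 s at baseline and 30 min after drug, with one of four concentrations per well (n = 8).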

[3] = listed in Supplementary Table S1; no reference given; cited from earlier work
[4] = FM monolayer, read-out: CtAmp (%DD)
[5] = FM monolayer, read-out: CtD50 (%DD)
[6] = MM monolayer, read-out: CtAmp (%DD)
[7] = MM monolayer, read-out: CtD50 (%DD)
[8] = FM monolayer, read-out: Trise (%DD)
[9] = MM monolayer, read-out: APD30 (%DD)
[10] = MM monolayer, read-out: APD90 (%DD)
[11] = MM monolayer, read-out: CL (%DD)
[12] = MM monolayer, read-out: Trise (%DD)
[13] = read-out: APD30 (%DD), FM monolayer
[14] = read-out: APD90 (%DD), FM monolayer
[15] = read-out: CL (%DD), FM monolayer
[16] = FM monolayer, read-out: APD30 (%DD)
[17] = FM monolayer, read-out: APD90 (%DD)
[18] = FM monolayer, read-out: CL (%DD)

`C[C@H]1O[C@@H](O[C@H]2[C@@H](O)C[C@H](O[C@H]3[C@@H](O)C[C@H](O[C@H]4CC[C@@]5(C)[C@H](CC[C@@H]6[C@@H]5C[C@@H](O)[C@]5(C)[C@@H](C7=CC(=O)OC7)CC[C@]65O)C4)O[C@@H]3C)O[C@@H]2C)C[C@H](O)[C@@H]1O` [Digoxin] gave an activity at 0.1 µM [1, 4] of 88 ± 6.1%, an activity at 0.1 µM [1, 5] of 90 ± 1.3% and an activity at 0.3 µM [1, 4] of 18 ± 11.1%. It also gave an activity at 0.3 µM [1, 5] of 51 ± 15.9%, an activity at 0.1 µM [1, 6] of 127 ± 26.2% and an activity at 0.1 µM [1, 7] of 97 ± 2%. The activity at 0.3 µM [1, 6] was 12 ± 3.3%, the activity at 0.3 µM [1, 7] was 43 ± 1.8% and the activity at 1 µM [1, 6] was 13 ± 5.3%. The activity at 1 µM [1, 7] was 40 ± 3.6%, the activity at 3 µM [1, 6] was 7 ± 1.9% and the activity at 3 µM [1, 7] was 43 ± 3.4%. The “increasing the amplitude of contraction (positive inotropy)” value ([1]; both experimental groups) was “ineffective”, the activity at 0.1 µM [2, 8] was 100 ± 21.3% and the activity at 0.1 µM [2, 9] was 91 ± 1.2%. For the same compound, the activity at 0.1 µM [2, 10] was 101 ± 1.3%, the activity at 0.1 µM [2, 11] was 102 ± 0.4% and the activity at 0.1 µM [2, 12] was 127 ± 10.8%. It also gave an activity at 0.3 µM [2, 9] of 68 ± 2.5%, an activity at 0.3 µM [2, 10] of 89 ± 1% and an activity at 0.3 µM [2, 11] of 100 ± 0.8%. The activity at 0.3 µM [2, 12] was 161 ± 38.2%, the activity at 0.1 µM [2, 13] was 84 ± 1.8% and the activity at 0.3 µM [2, 13] was 65 ± 2.8%. It also gave an activity at 0.1 µM [2, 14] of 95 ± 0.6%, an activity at 0.3 µM [2, 14] of 88 ± 2.1% and an activity at 0.1 µM [2, 15] of 98 ± 0.7%. For the same compound, the activity at 0.3 µM [2, 15] was 98 ± 0.9%, the activity at 0.3 µM ([2]; read-out: Trise (%DD), FM monolayer) was 74 ± 9.2% and the “effect on APD (in words)” value ([2]; both groups) was “decreased”. The “electrical activity of the monolayers at higher concentrations” value [2] was “electrical quiescence” and the “Free Cmax” value [3] was 2 nM.

`CC(CCc1ccc(O)cc1)NCCc1ccc(O)c(O)c1` (centres unmarked) [Dobutamine] showed an activity at 1 µM [1, 4] of 93 ± 10.7%, an activity at 1 µM [1, 5] of 79 ± 1.5% and an activity at 3 µM [1, 4] of 99 ± 8.4%. It also gave an activity at 3 µM [1, 5] of 75 ± 2%, an activity at 10 µM [1, 4] of 82 ± 3.2% and an activity at 10 µM [1, 5] of 82 ± 2.2%. The activity at 1 µM [1, 6] was 101 ± 11.6%, the activity at 1 µM [1, 7] was 82 ± 1.1% and the activity at 3 µM [1, 6] was 89 ± 6.3%. For the same compound, the activity at 3 µM [1, 7] was 78 ± 1.2%, the activity at 10 µM [1, 6] was 98 ± 7.5% and the activity at 10 µM [1, 7] was 77 ± 1.3%. The activity at 1 µM [2, 16] was 84 ± 1.4%, the activity at 1 µM [2, 17] was 89 ± 0.9% and the activity at 1 µM [2, 18] was 76 ± 0.4%. The activity at 1 µM [2, 8] was 86 ± 5.3%, the activity at 3 µM [2, 16] was 77 ± 1.5% and the activity at 3 µM [2, 17] was 86 ± 0.8%. The activity at 3 µM [2, 18] was 77 ± 0.9%, the activity at 3 µM [2, 8] was 100 ± 18.9% and the activity at 10 µM [2, 16] was 90 ± 2%. It also gave an activity at 10 µM [2, 17] of 91 ± 1.9%, an activity at 10 µM [2, 18] of 81 ± 0.8% and an activity at 10 µM [2, 8] of 131 ± 21.5%. For the same compound, the activity at 1 µM [2, 9] was 89 ± 1.2%, the activity at 1 µM [2, 10] was 91 ± 1% and the activity at 1 µM [2, 11] was 75 ± 0.7%. For the same compound, the activity at 1 µM [2, 12] was 91 ± 7.1%, the activity at 3 µM [2, 9] was 85 ± 1.3% and the activity at 3 µM [2, 10] was 91 ± 0.9%. For the same compound, the activity at 3 µM [2, 11] was 76 ± 0.5%, the activity at 3 µM [2, 12] was 109 ± 14.1% and the activity at 10 µM [2, 9] was 86 ± 1.9%. For the same compound, the activity at 10 µM [2, 10] was 96 ± 0.9%, the activity at 10 µM [2, 11] was 81 ± 0.6% and the activity at 10 µM [2, 12] was 146 ± 13.9%. The “effect on cycle length (in words)” value ([2]; both FM and MM monolayers, concentration not given) was “concentration-dependent decrease”, the “electrical activity of the monolayers at higher concentrations” value [2] was “electrically quiescent” and the “Free Cmax” value [3] was 80 nM.
